Measured values: patent US20060069132A1, “Azolecarboxamide herbicides” (priority 2004, published 2006)

Columns and labels:
bermudagrass = assay: Test C pre-/postemergence herbicide test; assay type: in vivo, Cynodon dactylon; details: for Plant response rating (0 = no effect, 100 = complete control), Bermudagrass / Plant response rating, Bermudagrass: preemergence
How it was run: (§1)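 Greenhouse-grown plants were evaluated visually 12 to 14 days after treatment, with 100 meaning complete control and 0 no effect. Application was preemergence, or postemergence at 2 to 18 cm.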

cocklebur = assay: Test C pre-/postemergence herbicide test; assay type: in vivo, Xanthium strumarium; details: for Plant response rating (0 = no effect, 100 = complete control), Cocklebur / Plant response rating, Cocklebur: preemergence
How it was run: as §1

corn = assay: Test C pre-/postemergence herbicide test; assay type: in vivo, Zea mays; details: for Plant response rating (0 = no effect, 100 = complete control), Corn / Plant response rating, Corn: preemergence
How it was run: as §1

goosegrass = assay: Test C pre-/postemergence herbicide test; assay type: in vivo, Eleusine indica; details: for Plant response rating (0 = no effect, 100 = complete control), Goosegrass / Plant response rating, Goosegrass: preemergence
How it was run: as §1

johnsongrass = assay: Test C pre-/postemergence herbicide test; assay type: in vivo, Sorghum halepense; details: for Plant response rating (0 = no effect, 100 = complete control), Johnsongrass / Plant response rating, Johnsongrass: preemergence
How it was run: as §1

soybean = assay: Test C pre-/postemergence herbicide test; assay type: in vivo, Glycine max; details: for Plant response rating (0 = no effect, 100 = complete control), Soybean / Plant response rating, Soybean: preemergence
How it was run: as §1

velvetleaf = assay: Test C pre-/postemergence herbicide test; assay type: in vivo, Abutilon theophrasti
How it was run: as §1

rice = assay: Test C flooded paddy test; assay type: in vivo, Oryza sativa; details: for Plant response rating, Rice: 500 g ai/ha, visual rating after 12 to 14 days
How it was run: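 Injury scored visually against controls on a 0 (no effect) to 100 (complete control) scale, 12 to 14 days after treatment in greenhouse. Flooded paddy plants treated at 2-leaf stage; postemergence plants at 1- to 4-leaf stage, 2 to 18 cm tall.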

[1] = system: smallflower umbrella sedge; assay: Test C flooded paddy test; assay type: in vivo, Cyperus difformis; details: for Plant response rating, Sedge, Umbrella: 500 g ai/ha, visual rating after 12 to 14 days
ducksalad = assay: Test C flooded paddy test; assay type: in vivo, Heteranthera limosa; details: for Plant response rating, Ducksalad: 500 g ai/ha, visual rating after 12 to 14 days
[2] = 125 g ai/ha, scale 0 (no effect) to 100 (complete control), visual, 12 to 14 days
[3] = 250 g ai/ha, scale 0 to 100 (0 no effect, 100 complete control), visual, 12 to 14 days
[4] = Preemergence, 500 g ai/ha, scale 0 to 100, 0 no effect, 100 complete control
[5] = 62 g ai/ha, scale 0 to 100 (0 no effect, 100 complete control)
[6] = 125 g ai/ha, scale 0 to 100 (0 no effect, 100 complete control)
[7] = 250 g ai/ha, scale of 0 to 100, 0 is no effect, 100 is complete control
[8] = scale 0 to 100 (0 no effect, 100 complete control)
[9] = 500 g ai/ha, scale 0 to 100 (0 no effect, 100 complete control), visual, 12 to 14 days

Compound: CCn1nc(C(C)(C)C)cc1C(=O)Nc1cc(C#N)ccc1F [Compound 140]
- Plant response rating (0 = no effect, 100 = complete control), Bermudagrass (bermudagrass; 62 g ai/ha): 0
- Plant response rating, Bermudagrass (bermudagrass; [2]): 0
- Plant response rating, Bermudagrass (bermudagrass; [3]): 60
- Bermudagrass plant response rating (bermudagrass; [4]): 85
- Plant response rating (0 = no effect, 100 = complete control), Cocklebur (cocklebur; 62 g ai/ha): 0
- Plant response rating, Cocklebur (cocklebur; [2]): 0
- Plant response rating, Cocklebur (cocklebur; [3]): 0
- Cocklebur plant response rating (cocklebur; [4]): 0
- Plant response rating (0 = no effect, 100 = complete control), Corn (corn; 62 g ai/ha): 0
- Plant response rating, Corn (corn; [2]): 0
- Plant response rating, Corn (corn; [3]): 0
- Corn plant response rating (corn; [4]): 0
- Plant response rating (0 = no effect, 100 = complete control), Goosegrass (goosegrass; 62 g ai/ha): 0
- Plant response rating, Goosegrass (goosegrass; [2]): 0
- Goosegrass plant response rating (goosegrass; [4]): 75
- Plant response rating (0 = no effect, 100 = complete control), Johnsongrass (johnsongrass; 62 g ai/ha): 0
- Plant response rating, Johnsongrass (johnsongrass; [2]): 45
- Johnsongrass plant response rating (johnsongrass; [4]): 75
- Plant response rating (0 = no effect, 100 = complete control), Soybean (soybean; 62 g ai/ha): 0
- Soybean plant response rating (soybean; [4]): 0
- Plant response rating, Velvetleaf (velvetleaf; 125 g ai/ha, scale 0 (no effect) to 100 (complete control), visual, 12 to 14 days, preemergence): 0
- Velvetleaf plant response rating (velvetleaf; [4]): 20
- Rice plant response rating (rice; [5]): 0
- Rice plant response rating (rice; [6]): 0
- Rice plant response rating (rice; [7]): 0
- Plant response rating, Rice (rice; [8]): 0
- Sedge, Umbrella plant response rating [1, 5]: 0
- Sedge, Umbrella plant response rating [1, 6]: 20
- Sedge, Umbrella plant response rating [1, 7]: 45
- Plant response rating, Sedge, Umbrella [1, 8]: 65
- Ducksalad plant response rating (ducksalad; [5]): 0
- Ducksalad plant response rating (ducksalad; [6]): 0
- Ducksalad plant response rating (ducksalad; [7]): 0
- Plant response rating, Ducksalad (ducksalad; [8]): 20

Compound: Cc1nn(C(C)(C)C)nc1C(=O)Nc1cccc(C(=O)N(C)C)c1 [Compound 391]
- Plant response rating, Bermudagrass (bermudagrass; 62 g ai/ha, scale 0 to 100, 0 no effect, 100 complete control): 95
- Plant response rating (0 = no effect, 100 = complete control), Bermudagrass (bermudagrass; 125 g ai/ha): 95
- Plant response rating, Bermudagrass (bermudagrass; 250 g ai/ha, scale 0-100): 95
- Plant response rating, Bermudagrass (bermudagrass; [9]): 95
- Plant response rating, Cocklebur (cocklebur; 62 g ai/ha, scale 0 to 100): 20
- Plant response rating (0 = no effect, 100 = complete control), Cocklebur (cocklebur; 125 g ai/ha): 45
- Plant response rating, Cocklebur (cocklebur; 250 g ai/ha, scale 0-100): 80
- Plant response rating, Cocklebur (cocklebur; [9]): 80
- Plant response rating, Corn (corn; 62 g ai/ha, scale 0 to 100): 80
- Plant response rating (0 = no effect, 100 = complete control), Corn (corn; 125 g ai/ha): 80
- Plant response rating, Corn (corn; 250 g ai/ha, scale 0-100): 85
- Plant response rating, Corn (corn; [9]): 85
- Plant response rating, Goosegrass (goosegrass; 62 g ai/ha, scale 0 to 100): 80
- Plant response rating (0 = no effect, 100 = complete control), Goosegrass (goosegrass; 125 g ai/ha): 85
- Plant response rating, Goosegrass (goosegrass; 250 g ai/ha, scale 0-100): 90
- Plant response rating, Goosegrass (goosegrass; [9]): 95
- Plant response rating, Johnsongrass (johnsongrass; 62 g ai/ha, scale 0 to 100): 100
- Plant response rating (0 = no effect, 100 = complete control), Johnsongrass (johnsongrass; 125 g ai/ha): 100
- Plant response rating, Johnsongrass (johnsongrass; 250 g ai/ha, scale 0-100): 100
- Plant response rating, Johnsongrass (johnsongrass; [9]): 100
- Plant response rating, Soybean (soybean; 62 g ai/ha, scale 0 to 100): 95
- Plant response rating (0 = no effect, 100 = complete control), Soybean (soybean; 125 g ai/ha): 95
- Plant response rating, Soybean (soybean; 250 g ai/ha, scale 0-100): 100
- Plant response rating, Soybean (soybean; [9]): 100
- Plant response rating, Velvetleaf (velvetleaf; 62 g ai/ha, preemergence, scale 0 to 100): 100
- Plant response rating (0 = no effect, 100 = complete control), Velvetleaf (velvetleaf; 125 g ai/ha, preemergence): 100
- Plant response rating, Velvetleaf (velvetleaf; 250 g ai/ha, scale 0-100, preemergence): 100
- Plant response rating, Velvetleaf (velvetleaf; 500 g ai/ha, scale 0 to 100 (0 no effect, 100 complete control), visual, 12 to 14 days, preemergence): 100
- Rice plant response rating (rice; 62 g ai/ha, scale 0 to 100): 65
- Rice plant response rating (rice; [6]): 65
- Rice plant response rating (rice; [7]): 75
- Plant response rating, Rice (rice; [8]): 80
- Sedge, Umbrella plant response rating ([1]; 62 g ai/ha, scale 0 to 100): 80
- Sedge, Umbrella plant response rating [1, 6]: 80
- Sedge, Umbrella plant response rating [1, 7]: 85
- Plant response rating, Sedge, Umbrella [1, 8]: 95
- Ducksalad plant response rating (ducksalad; 62 g ai/ha, scale 0 to 100): 85
- Ducksalad plant response rating (ducksalad; [6]): 85
- Ducksalad plant response rating (ducksalad; [7]): 85
- Plant response rating, Ducksalad (ducksalad; [8]): 95
